In ChEMBL document CHEMBL4665869, “New thiazolopyrimidine as anticancer agents: Synthesis, biological evaluation, DNA binding, molecular modeling and ADMET study” (Bioorg Med Chem Lett, 2020):
Converted amounts (≈) assume the structure as drawn.

Tests used:
DNA = test: Displacement of methyl green from DNA (unknown origin) assessed as DNA intercalation after 24 hrs by colorimetric assay; format: nucleic-acid assay
SW-620 = test: Growth inhibition of human SW-620 cells at 10 uM relative to control; format: functional; settings: read-out: GI
CAKI-1 = test: Growth inhibition of human CAKI-1 cells at 10 uM relative to control; format: functional; settings: read-out: GI
OVCAR-8 = test: Growth inhibition of human OVCAR-8 cells at 10 uM relative to control; format: functional; settings: read-out: GI
NCI-H522 = test: Growth inhibition of human NCI-H522 cells at 10 uM relative to control; format: functional; settings: read-out: GI
MDA-MB-231 = test: Growth inhibition of human MDA-MB-231 cells at 10 uM relative to control; format: functional; settings: read-out: GI
HOP-92 = test: Growth inhibition of human HOP-92 cells at 10 uM relative to control; format: functional; settings: read-out: GI
MCF7 = test: Growth inhibition of human MCF7 cells at 10 uM relative to control; format: functional; settings: read-out: GI
NCI/ADR-RES = test: Growth inhibition of human NCI/ADR-RES cells at 10 uM relative to control; format: functional; settings: read-out: GI
NCI-H226 = test: Growth inhibition of human NCI-H226 cells at 10 uM relative to control; format: functional; settings: read-out: GI
Hs-578T = test: Growth inhibition of human Hs-578T cells at 10 uM relative to control; format: functional; settings: read-out: GI
CCRF-CEM = test: Growth inhibition of human CCRF-CEM cells at 10 uM relative to control; format: functional; settings: read-out: GI
OVCAR-4 = test: Growth inhibition of human OVCAR-4 cells at 10 uM relative to control; format: functional; settings: read-out: GI
SK-OV-3 = test: Growth inhibition of human SK-OV-3 cells at 10 uM relative to control; format: functional; settings: read-out: GI
PC-3 = test: Growth inhibition of human PC-3 cells at 10 uM relative to control; format: functional; settings: read-out: GI
IGROV-1 = test: Growth inhibition of human IGROV-1 cells at 10 uM relative to control; format: functional; settings: read-out: GI
NCI-H460 = test: Growth inhibition of human NCI-H460 cells at 10 uM relative to control; format: functional; settings: read-out: GI
RXF 393 = test: Growth inhibition of human RXF 393 cells at 10 uM relative to control; format: functional; settings: read-out: GI
T47D = test: Growth inhibition of human T47D cells at 10 uM relative to control; format: functional; settings: read-out: GI
SN12C = test: Growth inhibition of human SN12C cells at 10 uM relative to control; format: functional; settings: read-out: GI
A498 = test: Growth inhibition of human A498 cells at 10 uM relative to control; format: functional; settings: read-out: GI
K562 = test: Growth inhibition of human K562 cells at 10 uM relative to control; format: functional; settings: read-out: GI
SF-539 = test: Growth inhibition of human SF-539 cells at 10 uM relative to control; format: functional; settings: read-out: GI
ACHN = test: Growth inhibition of human ACHN cells at 10 uM relative to control; format: functional; settings: read-out: GI
UACC-62 = test: Growth inhibition of human UACC-62 cells at 10 uM relative to control; format: functional; settings: read-out: GI
COLO 205 = test: Growth inhibition of human COLO 205 cells at 10 uM relative to control; format: functional; settings: read-out: GI
A549 = test: Growth inhibition of human A549 cells at 10 uM relative to control; format: functional; settings: read-out: GI
SF-268 = test: Growth inhibition of human SF-268 cells at 10 uM relative to control; format: functional; settings: read-out: GI
HL-60(TB) = test: Growth inhibition of human HL-60(TB) cells at 10 uM relative to control; format: functional; settings: read-out: GI
NCI-H322M = test: Growth inhibition of human NCI-H322M cells at 10 uM relative to control; format: functional; settings: read-out: GI
HCT-15 = test: Growth inhibition of human HCT-15 cells at 10 uM relative to control; format: functional; settings: read-out: GI
MDA-MB-435 = test: Growth inhibition of human MDA-MB-435 cells at 10 uM relative to control; format: functional; settings: read-out: GI
RPMI-8226 = test: Growth inhibition of human RPMI-8226 cells at 10 uM relative to control; format: functional; settings: read-out: GI
U-251 = test: Growth inhibition of human U-251 cells at 10 uM relative to control; format: functional; settings: read-out: GI
LOX IMVI = test: Growth inhibition of human LOX IMVI cells at 10 uM relative to control; format: functional; settings: read-out: GI
DU-145 = test: Growth inhibition of human DU-145 cells at 10 uM relative to control; format: functional; settings: read-out: GI
SK-MEL-5 = test: Growth inhibition of human SK-MEL-5 cells at 10 uM relative to control; format: functional; settings: read-out: GI
TK-10 = test: Growth inhibition of human TK-10 cells at 10 uM relative to control; format: functional; settings: read-out: GI
SNB-75 = test: Growth inhibition of human SNB-75 cells at 10 uM relative to control; format: functional; settings: read-out: GI
SF-295 = test: Growth inhibition of human SF-295 cells at 10 uM relative to control; format: functional; settings: read-out: GI
HCC 2998 = test: Growth inhibition of human HCC 2998 cells at 10 uM relative to control; format: functional; settings: read-out: GI
MOLT-4 = test: Growth inhibition of human MOLT-4 cells at 10 uM relative to control; format: functional; settings: read-out: GI
M14 = test: Growth inhibition of human M14 cells at 10 uM relative to control; format: functional; settings: read-out: GI
SNB-19 = test: Growth inhibition of human SNB-19 cells at 10 uM relative to control; format: functional; settings: read-out: GI
KM12 = test: Growth inhibition of human KM12 cells at 10 uM relative to control; format: functional; settings: read-out: GI
HT-29 = test: Growth inhibition of human HT-29 cells at 10 uM relative to control; format: functional; settings: read-out: GI
Malme-3M = test: Growth inhibition of human Malme-3M cells at 10 uM relative to control; format: functional; settings: read-out: GI
SK-MEL-28 = test: Growth inhibition of human SK-MEL-28 cells at 10 uM relative to control; format: functional; settings: read-out: GI
UO-31 = test: Growth inhibition of human UO-31 cells at 10 uM relative to control; format: functional; settings: read-out: GI
HOP-62 = test: Growth inhibition of human HOP-62 cells at 10 uM relative to control; format: functional; settings: read-out: GI
SR = test: Growth inhibition of human SR cells at 10 uM relative to control; format: functional; settings: read-out: GI
MDA-MB-468 = test: Growth inhibition of human MDA-MB-468 cells at 10 uM relative to control; format: functional; settings: read-out: GI
786-0 = test: Growth inhibition of human 786-0 cells at 10 uM relative to control; format: functional; settings: read-out: GI
BT-549 = test: Growth inhibition of human BT-549 cells at 10 uM relative to control; format: functional; settings: read-out: GI
NCI-H23 = test: Growth inhibition of human NCI-H23 cells at 10 uM relative to control; format: functional; settings: read-out: GI
HCT-116 = test: Growth inhibition of human HCT-116 cells at 10 uM relative to control; format: functional; settings: read-out: GI
OVCAR-5 = test: Growth inhibition of human OVCAR-5 cells at 10 uM relative to control; format: functional; settings: read-out: GI
SK-MEL-2 = test: Growth inhibition of human SK-MEL-2 cells at 10 uM relative to control; format: functional; settings: read-out: GI

Question: For `CCOC(=O)C1=CSC2=NC(/C=C/c3ccc(C)cc3)=CC(c3ccc(C)cc3)N12` (centres undefined), which IC50 (DNA) is on record?
Answer: 31.49 mg/L (≈ 75.6 µM)

Question: With `COc1ccc(/C=C/C2=CC(c3ccc(OC)cc3)N3C=C(C)SC3=N2)cc1` (centres undefined) as the compound, how does the IC50 (DNA) read?
Answer: 41.37 mg/L (≈ 106 µM)

Question: How did the IC50 (DNA) turn out when `COc1ccc(/C=C/C2=CC(c3ccc(OC)c(OC)c3)N3C=C(C)SC3=N2)cc1OC` (centres undefined) was run?
Answer: 58.32 mg/L (≈ 129 µM)

Question: Which IC50 (DNA) does the source give for `Cc1ccc(/C=C/C2=CC(c3ccc(C)cc3)N3C=CSC3=N2)cc1` (centres undefined) here?
Answer: 62.74 mg/L (≈ 182 µM)

Question: `COc1ccc(/C=C/C2=CC(c3ccc(OC)cc3)N3C(C)=CSC3=N2)cc1` (centres undefined) was tested. Which IC50 (DNA) did it give?
Answer: 42.5 mg/L (≈ 109 µM)

Question: Which results are given for `COc1ccc(/C=C/C2=CC(c3ccc(OC)c(OC)c3)N3C(C)=CSC3=N2)cc1OC` (centres undefined)?
Answer: inhibition of growth at 10 µM (SW-620): < 10%; inhibition of growth at 10 µM (CAKI-1): < 10%; inhibition of growth at 10 µM (OVCAR-8): < 10%; inhibition of growth at 10 µM (NCI-H522): < 10%; inhibition of growth at 10 µM (MDA-MB-231): < 10%; inhibition of growth at 10 µM (HOP-92): 18%; inhibition of growth at 10 µM (MCF7): < 10%; inhibition of growth at 10 µM (NCI/ADR-RES): < 10%; inhibition of growth at 10 µM (NCI-H226): < 10%; inhibition of growth at 10 µM (Hs-578T): < 10%; inhibition of growth at 10 µM (CCRF-CEM): < 10%; inhibition of growth at 10 µM (OVCAR-4): < 10%; inhibition of growth at 10 µM (SK-OV-3): < 10%; inhibition of growth at 10 µM (PC-3): < 10%; inhibition of growth at 10 µM (IGROV-1): < 10%; inhibition of growth at 10 µM (NCI-H460): < 10%; inhibition of growth at 10 µM (RXF 393): < 10%; inhibition of growth at 10 µM (T47D): < 10%; inhibition of growth at 10 µM (SN12C): < 10%; inhibition of growth at 10 µM (A498): 17.6%; inhibition of growth at 10 µM (K562): < 10%; inhibition of growth at 10 µM (SF-539): < 10%; inhibition of growth at 10 µM (ACHN): < 10%; inhibition of growth at 10 µM (UACC-62): < 10%; inhibition of growth at 10 µM (COLO 205): < 10%; IC50 (DNA): 72.54 mg/L (≈ 161 µM); inhibition of growth at 10 µM (A549): < 10%; inhibition of growth at 10 µM (SF-268): < 10%; inhibition of growth at 10 µM (HL-60(TB)): < 10%; inhibition of growth at 10 µM (NCI-H322M): < 10%; inhibition of growth at 10 µM (HCT-15): < 10%; inhibition of growth at 10 µM (MDA-MB-435): < 10%; inhibition of growth at 10 µM (RPMI-8226): < 10%; inhibition of growth at 10 µM (U-251): < 10%; inhibition of growth at 10 µM (LOX IMVI): < 10%; inhibition of growth at 10 µM (DU-145): < 10%; inhibition of growth at 10 µM (SK-MEL-5): < 10%; inhibition of growth at 10 µM (TK-10): < 10%; inhibition of growth at 10 µM (SNB-75): < 10%; inhibition of growth at 10 µM (SF-295): < 10%; inhibition of growth at 10 µM (HCC 2998): < 10%; inhibition of growth at 10 µM (MOLT-4): < 10%; inhibition of growth at 10 µM (M14): < 10%; inhibition of growth at 10 µM (SNB-19): < 10%; inhibition of growth at 10 µM (KM12): < 10%; inhibition of growth at 10 µM (HT-29): < 10%; inhibition of growth at 10 µM (Malme-3M): < 10%; inhibition of growth at 10 µM (SK-MEL-28): < 10%; inhibition of growth at 10 µM (UO-31): 11.7%; inhibition of growth at 10 µM (HOP-62): < 10%; inhibition of growth at 10 µM (SR): < 10%; inhibition of growth at 10 µM (MDA-MB-468): < 10%; inhibition of growth at 10 µM (786-0): < 10%; inhibition of growth at 10 µM (BT-549): < 10%; inhibition of growth at 10 µM (NCI-H23): < 10%; inhibition of growth at 10 µM (HCT-116): < 10%; inhibition of growth at 10 µM (OVCAR-5): < 10%; inhibition of growth at 10 µM (SK-MEL-2): < 10%

Question: For `CCOC(=O)C1=CSC2=NC(/C=C/c3cccs3)=CC(c3cccs3)N12` (centres undefined), which IC50 (DNA) is on record?
Answer: 66.01 mg/L (≈ 165 µM)
